Measured values taken from patent US20100061994A1, “MEDICAL USES OF 39-DESMETHOXYRAPAMYCIN AND ANALOGUES THEREOF” (priority 2005, published 2010).

Assays:
NCI 60 cell line panel = NCI 60 cell line panel monolayer proliferation assay (Protocol 2, SRB) with COMPARE analysis; type: cell-based, human; conditions: with the exception of one cell line
Procedure: The COMPARE analysis uses a Pearson analysis to compare the activity of two compounds on the NCI 60-cell line panel and produces a correlation coefficient which indicates how similar the two compounds spectra of activity are and this may indicate how related their mechanism's of action are.
The human tumor cell lines of the National Cancer Institute (NCI) cancer screening panel were grown in RPMI 1640 medium containing 5% fetal bovine serum and 2 mM L-glutamine (Boyd and Paull, 1995). Cells were inoculated into 96 well microtiter plates in 0.1 mL at plating densities ranging from 5,000 to 40,000 cells/well depending on the doubling time of individual cell lines. […]
Following drug addition, the plates were incubated for an additional 48 h at 37° C., 5% CO2, 95% air, and 100% relative humidity. […] Bound stain was subsequently solubilized with 10 mM trizma base, and the absorbance was read on an automated plate reader at a wavelength of 515 nm. […] Using the seven absorbance measurements [time zero, (Tz), control growth, (C), and test growth in the presence of drug at the five concentration levels (Ti)], the percentage growth was calculated at each of the drug concentrations levels. Percentage growth inhibition was calculated as:
Three dose response parameters were calculated for each experimental agent. […] The drug concentration resulting in total growth inhibition (TGI) was calculated from Ti=Tz. […]

394NL = assay: Monolayer proliferation assay Protocol 1 (propidium iodide); type: cell-based, human; conditions: 4 days, mean of duplicate experiments
Procedure: (§1) In vitro evaluation of compounds for anticancer activity in a panel of 12 human tumour cell lines in a monolayer proliferation assay were carried out at the Oncotest Testing Facility, Institute for Experimental Oncology, Oncotest GmbH, Freiburg.
(§2) A modified propidium iodide assay was used to assess the effects of the test compound(s) on the growth of twelve human tumor cell lines (Dengler et al, 1995).
(§3) Briefly, cells were harvested from exponential phase cultures by trypsinization, counted and plated in 96 well flat-bottomed microtitre plates at a cell density dependent on the cell line (5-10.000 viable cells/well). […] Each concentration was plated in triplicate. 39-Desmethoxyrapamycin was applied in two concentrations (0.001 mM and 0.01 mM).
(§4) Growth inhibition was expressed as treated/control×100 (% TIC). For active compounds, IC50 & IC70 values were estimated by plotting compound concentration versus cell viability.
(§5) In vitro evaluation of 39-desmethoxyrapamycin for anticancer activity in a panel of 12 human tumour cell lines in a monolayer proliferation assay was carried out as described as Protocol 1 in the general methods above using a modified propidium iodide assay.

MDA231 = assay: as above; type: cell-based, human; conditions: 4 days, mean of duplicate experiments
Procedure: as §1, §2, §3, §4, §5

[1] = Human Liver Microsomal (HLM) stability assay; type: in vitro ADME
Procedure: Liver homogenates provide a measure of a compounds inherent vulnerability to Phase I (oxidative) enzymes, including CYP450s (e.g. CYP2C8, CYP2D6, CYP1A, CYP3A4, CYP2E1), esterases, amidases and flavin monooxygenases (FMOs).
The half life (T½) of test compounds was determined, on exposure to Human Liver Microsomes, by monitoring their disappearance over time by LC-MS. Compounds at 0.001 mM were incubated at for 40 min at 37° C., 0.1 M Tris-HCl, pH 7.4 with human microsomal sub-cellular fraction of liver at 0.25 mg/mL protein and saturating levels of NADPH as co-factor. At timed intervals, acetonitrile was added to test samples to precipitate protein and stop metabolism. Samples were centrifuged and analysed for parent compound using analytical Method A (see Materials & Methods).

**Q.** For `COC1CC2CCC(C)C(O)(O2)C(=O)C(=O)N2CCCCC2C(=O)OC(C(C)CC2CCC(O)CC2)CC(=O)C(C)C=C(C)C(O)C(OC)C(=O)C(C)CC(C)C=CC=CC=C1C` (stereo not drawn) [39-desmethoxyrapamycin], which “efficacy against high MDR-expressing cell lines when compared to rapamycin” value (NCI 60 cell line panel) is on record?
**A.** equivalent or improved efficacy

**Q.** What about the “Test/Control (%) at drug concentration” value (394NL; 1 μM) of the same molecule?
**A.** 48%

**Q.** And the “Test/Control (%) at drug concentration” value (394NL; 10 μM)?
**A.** 40.5%

**Q.** And the “Test/Control (%) at drug concentration” value (MDA231; MDA231, 1 μM)?
**A.** 68%

**Q.** And the “Test/Control (%) at drug concentration” value (MDA231; MDA231, 10 μM)?
**A.** 37.5%

**Q.** What about the “metabolic stability compared to rapamycin” value [1] of the same molecule?
**A.** increased metabolic stability

**Q.** And the “HLM stability: T½ min” value ([1]; 0.001 mM, 0.25 mg/mL protein, NADPH, 37° C.)?
**A.** 59 min

**Q.** What does the source list for `CO[C@H]1C[C@@H]2CC[C@@H](C)[C@@](O)(O2)C(=O)C(=O)N2CCCC[C@H]2C(=O)O[C@H]([C@H](C)C[C@@H]2CC[C@@H](O)[C@H](OC)C2)CC(=O)[C@H](C)/C=C(\C)[C@@H](O)[C@@H](OC)C(=O)[C@H](C)C[C@H](C)/C=C/C=C/C=C/1C` [Rapamycin]?
**A.** Test/Control (%) at drug concentration (394NL; 1 μM): 45%; Test/Control (%) at drug concentration (394NL; 10 μM): 44%; Test/Control (%) at drug concentration (MDA231; MDA231, 1 μM): 67%; Test/Control (%) at drug concentration (MDA231; MDA231, 10 μM): 63.5%; half-life at 0.001 mM ([1]; human, liver microsomes, pH 7.4, 0.001 mM, 0.25 mg/mL protein, NADPH, 37° C., read-out: HLM stability: T½ min): 40 min
